{"source": "patent US12059433B2", "about": "“Treatment for autistic spectrum disorder (ASD) and relevant symptoms” (ACADEMIA SINICA, priority 2019, dated 2024)", "key": {"CTTNBP2 M120I mice": {"test_system": "CTTNBP2 M120I mice", "test": "Reciprocal social interaction (RSI) test, M120I mutant mice", "format": "in vivo, mouse", "settings": "for social interaction in RSI, single supplement: CTTNBP2 M120I mice, individually provided: zinc (20 ppm), BCAA (0.225%), serine (0.5%)", "experimental": "Before RSI, mice were individually isolated for at least a week. For the experiment, an unfamiliar adult mouse was put into the home cage of the test mouse for 10 min. The lid of the cage was removed during the entire session. Mouse behaviors were recorded by videotaping from above. The total time a test mouse spent interacting with and gently sniffing the unfamiliar mouse was manually recorded. Aggressive behavior was not assessed.\nA supplement or supplement mixture was prepared by mixing a zinc ion source, a serine component and/or BCAAs at various concentrations in drinking water for behavior analyses.\nWe tested three different ASD mouse models, i.e. Nf1+/−, Tbr1+/−, and Cttnbp2 M120I mice. Before taking supplement, mice were subjected to the first reciprocal social interaction test. After taking supplement for 7 days, mice were analyzed again using reciprocal social interaction to evaluate the effect of nutritional supplementation."}, "Cttnbp2−/− mice": {"test_system": "Cttnbp2−/− mice", "test": "Reciprocal social interaction (RSI) test, Cttnbp2−/− mice", "format": "in vivo, mouse", "description": "(§1) Mouse behaviors were recorded by videotaping from above. […] Aggressive behavior was not assessed. […] The zinc concentrations were normalized by protein amounts. […] The first trial was performed before zinc supplementation. […] Reciprocal social interaction trials were performed as described above. To analyze the effect of D-cycloserine (DCS, ab120121, Abcam) on social behaviors of Cttnbp2 mutant mice, adult mice (˜8 weeks old) were first habituated to handling by subjecting them to an open field with or without inanimate objects. Mice were then isolated until ˜10 weeks old for reciprocal social interaction trials. During isolation, mice were habituated to intraperitoneal injection, which effectively reduces their anxiety response to intraperitoneal injection during the experimental period. On day 1 of the experiment, saline control (0.9% of NaCl) was intraperitoneally injected into the test animal 30 min before a reciprocal social interaction trial, conducted as described above. On day 2 of the experiment, D-cycloserine solution (2 mg/kg in 0.9% of NaCl) was intraperitoneally injected into mice 30 min before a reciprocal social interaction trial."}, "[1]": {"settings": "zinc supplementation in drinking water, experimental period"}, "[2]": {"settings": "Cttnbp2−/− mice; 40 ppm zinc in drinking water for 7 days vs regular water", "description": "(§2) The concentration of zinc in the mouse chow (5K54, LabDiet) provided in our animal facility is 84 ppm. To increase the zinc intake to ˜150 ppm, mice were provided with ZnSO4 (Z0251, Sigma-Aldrich) in drinking water at a concentration of 40 ppm, which is based on daily consumption of ˜5 ml water and 2.5 g chow by each mouse. To study the expression of synaptic proteins after zinc supplementation, adult mice (˜8 weeks old) were fed with zinc-supplemented water or normal drinking water as control for 7 days and then sacrificed for synaptosomal analysis as described above. To validate the zinc levels in brain, zinc quantification kit (ab102597, Abcam) was used according to manufacturer's instruction. The zinc concentrations were normalized by protein amounts. To study the effect of zinc supplementation on social behavior of Cttnbp2 deletion and mutant mice, three consecutive trials of reciprocal social interaction were performed at intervals of 7 days (FIG. 8C). The first trial was performed before zinc supplementation. After the first trial, mice were provided with zinc-supplemented water (40 ppm) for 7 days and then subjected to the second trial. After the second trial, zinc-supplemented water was replaced with normal drinking water for 7 days and mice then underwent the third trial. Reciprocal social interaction trials were performed as described above."}, "wild-type mice": {"test_system": "wild-type mice", "settings": "40 ppm zinc in drinking water for 7 days", "description": "as §2"}, "CTTNBP2 R533* mice": {"test_system": "CTTNBP2 R533* mice", "test": "Reciprocal social interaction (RSI) test, R533* mutant mice", "format": "in vivo, mouse", "description": "as §1"}, "[3]": {"test_system": "synaptic proteins and glutamate receptors in synaptosomal fractions of Cttnbp2−/− mouse brains", "settings": "40 ppm zinc in drinking water for 7 days vs regular water", "description": "One hemisphere of the forebrains from adult mice (˜8-weeks-old) were isolated and homogenized using a tissue dounce homogenizer with a loose pestle in 1 ml sucrose buffer [50 mM Tris-Cl pH 7.4, 320 mM sucrose, 2 mM DTT, 2 μg/ml leupeptin, 2 μg/ml pepstatin-A, 2 μg/ml aproteinin, 2 mM PMSF, 2 μg/ml MG132]. An aliquot of 50 μl of total homogenate was kept. The remainder of the total homogenate was centrifuged twice at 800×g for 10 min at 4° C. The supernatant was centrifuged at 9200×g for 15 min to collect the pellet as a crude synaptosomal fraction. The protein concentrations of total homogenates and synaptosomal fractions were determined by Bradford assay (Bio-Rad Protein Assay Dye Reagent Concentrate, Cat #5000006). Synaptosomal protein samples were then analyzed with LC-MS-MS and immunoblotting.\nTo validate CTTNBP2 expression in knockout mice, adult mouse brain (˜8 weeks old) samples were homogenized in RIPA buffer. After 30 min, debris was removed by centrifugation (13000 rpm in a microcentrifuge for 20 min). The supernatants were collected and protein amounts were determined by Bio-Rad Protein Assay Dye Reagent Concentrate. Protein samples were denatured by 2× sample buffer and boiled for 10 min. Five μg of protein samples were separated by SDS-PAGE and then transferred to PVDF membrane. Membranes were blocked using blocking buffer [5% skim milk and 0.1% Tween-20 in PBS] for 30 min and hybridized with primary antibodies. In principle, primary antibody was added into blocking buffer and hybridized with the membrane overnight at 4° C. or for 3 hr at room temperature. Horseradish peroxidase-conjugated goat anti-mouse, rabbit, or guinea pig secondary antibodies were used to detect primary antibody and were visualized using a Western Lightening Plus ECL system (PerkinElmer).\nas §2"}, "Tbr1+/− mice": {"test_system": "Tbr1+/− mice", "settings": "cited from earlier work; for behavioral defects and autism-like behaviors: refs [49, 50, 51]"}, "Shank2−/− mice": {"test_system": "Shank2−/− mice", "settings": "previous studies [35-38]; cited from earlier work"}}, "data": [{"molecule": "N[C@@H](CO)C(=O)O", "note": "[serine, L-Serine]", "values": [{"measurement": "social interaction in RSI, single supplement", "setting": "CTTNBP2 M120I mice", "value": "did not improve"}]}, {"molecule": "O.O.O.O.O.O.O.O=S(=O)([O-])[O-].[Zn+2]", "note": "[zinc, Zinc sulfate heptahydrate]", "values": [{"measurement": "social interaction in RSI, single supplement", "setting": "CTTNBP2 M120I mice", "value": "did not improve"}, {"measurement": "social interaction, third RSI test", "setting": "Cttnbp2−/− mice; 7 days after discontinuing zinc supplementation, vs second RSI test", "value": "reduced"}, {"measurement": "time interacting with the unfamiliar mouse, second RSI test", "setting": "Cttnbp2−/− mice; after 40 ppm zinc in drinking water for 7 days, vs first RSI test", "value": "spent significantly longer interacting with the unfamiliar mouse"}, {"measurement": "body weight", "setting": "[1]", "value": "nor did it alter"}, {"measurement": "volumes of water drunk daily", "setting": "[1]", "value": "nor did it alter"}, {"measurement": "concentration of zinc in brains", "setting": "[2]", "value": "increase"}, {"measurement": "social behaviors in RSI tests", "setting": "wild-type mice", "value": "did not noticeably influence"}, {"measurement": "social interaction, third RSI test", "setting": "CTTNBP2 R533* mice; R533* mice, 7 days after discontinuing zinc supplementation, vs second RSI test", "value": "tended to be lowered, but it was not statistically different from those of the second RSI"}, {"measurement": "time interacting with the unfamiliar mouse, second RSI test", "setting": "CTTNBP2 R533* mice; R533* mice, after 40 ppm zinc in drinking water for 7 days, vs first RSI test", "value": "spent significantly longer interacting with the unfamiliar mouse"}, {"measurement": "GRIN1 expression level in synaptosomal fractions", "setting": "[3]", "value": "increased"}, {"measurement": "GRIN2B expression level in synaptosomal fractions", "setting": "[3]", "value": "increased"}, {"measurement": "MOB4 expression level in synaptosomal fractions", "setting": "[3]", "value": "increased"}, {"measurement": "RAC3 expression level in synaptosomal fractions", "setting": "[3]", "value": "increased"}, {"measurement": "SHANK2 expression level in synaptosomal fractions", "setting": "[3]", "value": "increased"}, {"measurement": "SHANK3 expression level in synaptosomal fractions", "setting": "[3]", "value": "increased"}, {"measurement": "STRN expression level in synaptosomal fractions", "setting": "[3]", "value": "increased"}, {"measurement": "cortactin expression level in synaptosomal fractions", "setting": "[3]", "value": "increased"}, {"measurement": "levels of GRIA1 in synaptosomal fractions", "setting": "[3]", "value": "not noticeably altered"}, {"measurement": "levels of GRIA2 in synaptosomal fractions", "setting": "[3]", "value": "not noticeably altered"}, {"measurement": "synaptic levels of DPYSL3", "setting": "[3]", "value": "reduced"}]}, {"molecule": "Oc1c(I)cc(Cl)c2cccnc12", "note": "[clioquinol]", "values": [{"measurement": "behavioral defects and autism-like behaviors", "setting": "Tbr1+/− mice", "value": "ameliorate the behavioral defects and improve autism-like behaviors"}]}, {"molecule": "N[C@@H]1CONC1=O", "note": "[D-cycloserine, (4R)-4-amino-1,2-oxazolidin-3-one, reference compound]", "values": [{"measurement": "social interaction behaviors in RSI test", "setting": "CTTNBP2 M120I mice; M120I mutant mice, 2 mg/kg intraperitoneally 30 min before RSI, vs saline", "value": "improved"}, {"measurement": "social behaviors", "setting": "Tbr1+/− mice; previous studies [35-38]", "value": "improves"}, {"measurement": "behavioral defects and autism-like behaviors", "setting": "Tbr1+/− mice", "value": "ameliorate the behavioral defects and improve autism-like behaviors"}, {"measurement": "social interaction behavior in RSI test", "setting": "Cttnbp2−/− mice; 2 mg/kg intraperitoneally 30 min before RSI, vs saline control", "value": "increased social interaction behavior"}, {"measurement": "social interaction behaviors in RSI test", "setting": "CTTNBP2 R533* mice; R533* mutant mice, 2 mg/kg intraperitoneally 30 min before RSI, vs saline", "value": "improved"}, {"measurement": "social behaviors", "setting": "Shank2−/− mice", "value": "improves"}]}]}
